From patent publication US9303009B2, “Migrastatins and uses thereof” (Sloan-Kettering Institute for Cancer Research, priority 2011, dated 2016)
Read-outs that look alike come from different tables or passages of the source.

Legend:
[1] = water solubility; format: physicochemical; conditions: water with 5% methanol, aqueous with cosolvent or surfactant or cyclodextrin; in the presence of 5% methanol
[2] = system: MDA231BrM2a cells; experiment: ex-vivo intra-brain migration assay on brain slices; format: cell-based, human; conditions: 1 μM or 10 μM; 3 days
Excerpt: After extravasation through the BBB, cancer cells adhere to and migrate on the surface of brain capillaries. Prior to the present disclosure, the permeability of the BBB to cME was unknown. To investigate the ability of cME to inhibit cancer cell migration over capillaries once the cells have infiltrated the brain, we used an ex-vivo intra-brain migration assay. Brain slices from untreated mice were placed in organotypic cultures. Each slice was placed on an inertporous membrane over cell culture medium. MDA231BrM2a cells (3×10^4 cells) were plated on top of the brain slices (FIG. 2, top). After 3 days, the cancer cells had infiltrated the brain tissue mass, migrated towards capillaries (Col. IV in FIG. 2) and migrated on the capillary network of the tissue slice (FIG. 2, bottom). […] In the presence of cME, the cancer cells remained round and on the surface of the brain slice, without migrating towards and over the vascular network (FIG. 2, bottom right).

[3] = system: MDA231-LM2 lung metastatic breast cancer cells; experiment: trans-well cell migration assay, 3 μm pore Boyden chamber; format: cell-based; conditions: 24 h pre-treatment, 5 h migration
Protocol: MDA231-LM2 lung metastatic breast cancer cells were pre-treated with the indicated concentrations of ME or Carboxymethyl-ME for 24 hours. Following the pre-treatment, migration was determined using a Boyden chamber with 3 μm pore size filters. Cells were allowed to migrate for 5 hours through the chamber (in the presence of ME or Carboxymethyl-ME). Cells that traversed the porous membranes were analyzed and scored under a fluorescence microscope. […] The results are expressed as transmigrated cells per optical field. Data are averages of triplicates ±S.D. (See FIG. 6)

[4] = mouse pharmacokinetics, plasma HPLC-MS/MS; format: in vivo, mice (B6D2F1); conditions: for AUC(0-t): 20 mg/kg in 2% GDM-12, read-out: AUC0-24 hr; for half-life: 20 mg/kg in 2% GDM-12, read-out: Half-life (t1/2) (converted)
Protocol: Groups of mix gender mice (B6D2F1) were used. Pharmacokinetics (PK) were performed on heparinized mouse plasma samples obtained typically at 0 hr, 0.17 hr, 0.5 hr, 0.75 hr, 1 hr, 2 hr, 4 hr, 8 hr, 16 hr and 24 hr after the bolus intravenous or intraperitoneal injections for CME. Samples were analyzed using a HPLC-MS/MS method. To determine the level of CME, the drug was first isolated from plasma with a sample pre-treatment. Acetonitrile were used to remove proteins in samples. An isocratic HPLC-MS/MS method was then used to separate the drugs from any potential interference. Compound levels were measured by MS detection with a multiple reaction monitoring (MRM) mode. PK data was analyzed using the WinNonlin program (ver. 5.3, Pharsight) compartmental model of analysis.
The hashed line is (A: ip) and the solid line is (B:iv) The drug was administered intravenously or intraperitoneally and the dosing strength was 20 mg/kg.

[5] = both sexes, B6D2F1, plasma, ip, 20 mg/kg in 2% GDM-12
[6] = both sexes, B6D2F1, plasma, iv, 20 mg/kg in 2% GDM-12

Which solubility [1] does the source give for `CO[C@H]1/C=C/CCCCCOC/C(C)=C\[C@@H](C)[C@@H]1OCC(=O)O` [CME, Carboxymethyl migraether] here?
The solubility was 200 to 300 µg/mL.

And the “migration of cancer cells towards and over the capillary network of the brain slice” value [2]?
Its value is “strongly inhibited”.

What about the “potency relative to ME at inhibiting migration” value [3] of the same compound?
The value was “approximately 20 fold”.

What about the AUC(0-inf) [4, 5] of the same compound?
Its AUC(0-inf) is 27900 ng·h/mL.

And the Cmax [4, 5]?
Its Cmax is 369 ng/mL.

What about the bioavailability [4, 5] of the same compound?
Its bioavailability is 77.8%.

And the AUC(0-t) ([4]; both sexes, B6D2F1, plasma, ip)?
Its AUC(0-t) is 27800 ng·h/mL.

What about the half-life ([4]; both sexes, B6D2F1, plasma, ip) of the same compound?
Its half-life is 2.4 h.

What about the AUC(0-inf) [4, 6] of the same compound?
Its AUC(0-inf) is 36000 ng·h/mL.

What about the Cmax [4, 6] of the same compound?
The Cmax was 1540 ng/mL.

What about the clearance [4, 6] of the same compound?
Its clearance is 9.25 mL/min/kg.

What about the AUC(0-t) ([4]; both sexes, B6D2F1, plasma, iv) of the same compound?
Its AUC(0-t) is 35700 ng·h/mL.

And the half-life ([4]; both sexes, B6D2F1, plasma, iv)?
Its half-life is 2.9 h.

What about the CL ([4]; ip, 20 mg/kg in 2% GDM-12) of the same compound?
Its CL is 11.96 mL/min/kg.
